Target: T1, ctdWDR91 (Homo sapiens, UniProt A4D1P6)
T1 sequence (A4D1P6 392-747): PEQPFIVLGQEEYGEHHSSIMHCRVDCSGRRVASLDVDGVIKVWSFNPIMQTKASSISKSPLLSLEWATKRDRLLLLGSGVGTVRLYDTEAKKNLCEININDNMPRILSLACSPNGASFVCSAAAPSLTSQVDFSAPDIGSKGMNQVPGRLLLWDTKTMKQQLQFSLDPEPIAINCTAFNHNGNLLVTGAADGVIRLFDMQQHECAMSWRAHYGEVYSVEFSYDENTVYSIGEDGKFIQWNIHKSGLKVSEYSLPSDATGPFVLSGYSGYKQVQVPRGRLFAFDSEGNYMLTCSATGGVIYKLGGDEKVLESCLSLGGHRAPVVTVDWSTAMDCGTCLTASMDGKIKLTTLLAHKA
Assay: biochemical
Conditions: not given

O=C(NC1CCN(c2ccc(Cl)cc2)C1)c1ccc(C2(O)COC2)cc1 (centres unmarked) [DRGG001966a] and Cc1ccc(N2CCC(NC(=O)c3ccc(Cl)cc3)C2)cc1 (centres unmarked) [DRGG001953a] cannot be ordered by Kd: greater than 45 µM for the first, greater than 45 µM for the second.

CC1CCN(c2ccc(C(=O)NC3(Cc4ccc(F)cc4)CC3)cc2)C1 (centres unmarked) [DRGG002014a] and CC1CCN(c2ccc(C(=O)NC3(c4ccc(F)cc4)CC3)cc2)C1 (centres unmarked) [DRGG002016a] cannot be ordered by Kd: greater than 45 µM for the first, greater than 45 µM for the second.

O=C(NC1(Cc2ccccc2)COC1)c1ccc(N2CCC(O)C2)cc1 (centres unmarked) [DRGG001952a] and O=C(NC1(c2ccc(Cl)cc2)CC1)c1ccc(N2CCC(O)C2)cc1 (centres unmarked) [DRGG001980a] cannot be ordered by Kd: greater than 45 µM for the first, greater than 20 µM for the second.

First: O=C(NC(CCO)c1ccc(Cl)cc1)c1ccc(N2CCC(O)C2)cc1 (centres unmarked) [DRGG001961a]
Second: NC(=O)C1CCCN(c2ccc(C(=O)NC(CCO)c3ccc(Cl)cc3)cc2)C1 (centres unmarked) [DRGG001997a]
The Kd of the first is 1.6-fold lower: 14 µM for the first, 22 µM for the second.

NC(=O)c1ccc(C2(C(=O)NCC3CCN(c4ccc(Cl)cc4)C3)CC2)cc1 (centres unmarked) [DRGG002017a] and N#CC1(c2ccc(C(=O)NCC3CCN(c4ccc(Cl)cc4)C3)cc2)CC1 (centres unmarked) [DRGG001993a] cannot be ordered by Kd: greater than 45 µM for the first, greater than 45 µM for the second.

CC1(NC(=O)c2ccc(N3CCC(O)C3)cc2)CCN(C(=O)OC(C)(C)C)C1 (centres unmarked) [DRGG002003a] and O=C(CNC(=O)c1ccc(N2CCC(O)C2)cc1)OCc1ccc(Cl)cc1 (centres unmarked) [DRGG002006a] cannot be ordered by Kd: greater than 45 µM for the first, greater than 45 µM for the second.

O=C(NCC1CCN(c2ccc(Cl)cc2)C1)c1ccc(OC2CCOC2)cc1 (centres unmarked) [DRGG001945a] and O=C(NCC1CCN(c2ccc(F)cc2)C1)c1ccc(Cl)cc1 (centres unmarked) [DRGG001960a] cannot be ordered by Kd: greater than 45 µM for the first, greater than 45 µM for the second.

O=C(NC1(c2ccc(Cl)cc2)COC1)c1ccc(CC2CC2)cc1 [DRGG001970a] and O=C(NC1(c2ccc(Cl)cc2)COC1)c1ccc(N2CCCC2)cc1 [DRGG001988a] cannot be ordered by Kd: greater than 45 µM for the first, greater than 45 µM for the second.

Going from Nc1ncnc2cc(C(=O)NC3(c4ccc(Cl)cc4)COC3)ccc12 [DRGG001943a] to O=C(NC1CCN(c2ccc(F)cc2)C1)c1ccc(Cl)cc1 (centres unmarked) [DRGG001976a], the Kd rises from 37 µM to greater than 45 µM.

O=C(NCCOc1ccc(Cl)cc1)c1ccc(N2CCC(O)C2)cc1 (centres unmarked) [DRGG002013a] and O=C(N[C@@H]1C[C@H]1c1ccc(Cl)cc1)c1ccc(N2CCC(O)C2)cc1 (some centres unmarked) [DRGG001986a] cannot be ordered by Kd: greater than 45 µM for the first, greater than 45 µM for the second.

CC1(c2ccc(C(=O)NC3CCN(c4ccc(F)cc4)C3)cc2)CC1 (centres unmarked) [DRGG001994a] and CC1CCN(c2ccc(C(=O)NCC3(c4ccc(F)cc4)CC3)cc2)C1 (centres unmarked) [DRGG001965a] cannot be ordered by Kd: greater than 45 µM for the first, greater than 45 µM for the second.

O=C(NC1CCc2cc(Cl)ccc21)c1ccc(N2CCC(O)C2)cc1 (centres unmarked) [DRGG001981a] and O=C(N[C@@H]1CCO[C@H]1c1ccc(Cl)cc1)c1ccc(N2CCC(O)C2)cc1 (some centres unmarked) [DRGG002001a] cannot be ordered by Kd: greater than 45 µM for the first, greater than 45 µM for the second.

O=C(NC1CCN(c2ccc(Cl)cc2)C1)c1ccc(CN2CCCC2=O)cc1 (centres unmarked) [DRGG001992a] and O=C(NCC1CCN(c2ccc(Cl)cc2)C1)c1ccc(CN2CCOCC2)cc1 (centres unmarked) [DRGG001983a] cannot be ordered by Kd: greater than 45 µM for the first, greater than 45 µM for the second.

O=C(NCC1CCN(c2ccc(F)cc2)C1)c1ccc(N2CCC(O)C2)cc1 (centres unmarked) [DRGG001938a] and O=C(NCC1CCN(c2ccc(Cl)cc2)C1)c1ccc(F)cc1 (centres unmarked) [DRGG001950a] cannot be ordered by Kd: greater than 45 µM for the first, greater than 45 µM for the second.

CC(NC(=O)c1ccc(N2CCC(O)C2)cc1)c1cccc(N2CCCC2)c1 (centres unmarked) [DRGG001998a] and C[C@@H](NC(=O)c1ccc(N2CCC(O)C2)cc1)c1ccc2c(c1)CCCC2 (some centres unmarked) [DRGG001990a] cannot be ordered by Kd: greater than 45 µM for the first, greater than 45 µM for the second.

O=C(NCC1CCN(c2ccc(F)cc2)C1)NC1(c2ccc(Cl)cc2)CC1 (centres unmarked) [DRGG002015a] and O=C(NCC1CCN(c2ccc(Cl)cc2)C1)NC1(c2ccc(F)cc2)CC1 (centres unmarked) [DRGG002005a] cannot be ordered by Kd: greater than 45 µM for the first, greater than 45 µM for the second.

First: O=C(Nc1cccc2cnccc12)c1ccc(N2CCC(O)C2)cc1 (centres unmarked) [DRGG001979a]
Second: O=C(NCc1ccc2nsnc2c1)c1ccc(N2CCC(O)C2)cc1 (centres unmarked) [DRGG002011a]
The Kd of the first is higher: greater than 45 µM for the first, 12 µM for the second. The second binds more tightly here.

O=C(NCC1CCN(c2ccc(Cl)cc2)C1)c1ccc(C(=O)NC2CC2)cc1 (centres unmarked) [DRGG001936a] and O=C(NCC1CCN(c2ccc(F)cc2)C1)N1CC(O)(c2ccc(Cl)cc2)C1 (centres unmarked) [DRGG002002a] cannot be ordered by Kd: greater than 45 µM for the first, greater than 45 µM for the second.

Target: T1, ctdWDR91
Assay: not given
Conditions: at saturation (0-200 uM series), 2 h pre-incubation; covalent

C=CC(=O)N1CCCc2c(C(=O)NC(c3ccc(Cl)cc3)C3CC3)cccc21 (centres unmarked) [DRTR002365a] and C=CC(=O)N1CCCc2c(C(=O)NC3(c4ccc(Cl)cc4)COC3)cccc21 [MRTR046654a] are the same in DSF_delta_Tm_: 4 °C for the first, 4 °C for the second.
